Test results reported in EP4813991A1 (iLeadBMS Co., Ltd., priority 2023, dated 2025).

Experiments:
CDK2 = CDK2 (Homo sapiens, UniProt P24941); test: CDK2 kinase inhibitory activity assay and selectivity over CDK12; type: biochemical; conditions: for IC50: kinase reaction 120 minutes, 33P-gamma-ATP; for CDK2/CDK12: ratio of CDK2 IC50 to CDK12 IC50
How it was run: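 Radiometric ^33P-gamma-ATP filter-binding assay: compound (9 concentrations, DMSO) preincubated 20 min with CDK1 or CDK2 plus substrate, then kinase reaction 120 min at room temperature. Phosphorylated substrate counted after phosphoric acid washes; activity relative to DMSO control, IC50 calculated.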

HCC70 cells = test: Breast cancer cell proliferation inhibitory activity, HCC70; type: cell-based; conditions: Homo sapiens, 72 hours, CellTiter Glo, relative IC50
Protocol: Experiments were conducted using three types of breast cancer cell lines to measure the cell proliferation inhibitory ability of each Example compound. For HCC70 cells, 100 µL of cell suspension was dispensed into a 96-well plate using RPMI1640 (Invitrogen) medium containing 10 % FBS, followed by incubation in a cell incubator at 37 °C and 5 % CO2. For BT-20 cells, 100 µL of cell suspension was dispensed into a 96-well plate using EMEM (Invitrogen) medium containing 10 % FBS, followed by incubation in a cell incubator at 37 °C and 5 % CO2. For MDA-MB-436 cells, 100 µL of cell suspension was dispensed into a 96-well plate using L-15 (Invitrogen) medium containing 10 % FBS, followed by incubation in a cell incubator at 37 °C and 0 % CO2. The next day, each Example compound dissolved and diluted in DMSO across 9 concentration ranges and a DMSO control group were treated on the cells for 72 hours. After completion of the compound treatment, 100 µL of CellTiter Glo (Promega) reagent was added to each well of the 96-wellplate, followed by shaking for 10 minutes and standing at room temperature for 10 minutes. After inserting the 96-well plate into an Envision plate reader (PerkinElmer), luminescence signals were measured. Relative IC50 values were calculated by fitting a dose-response curve using XL fit (IDBS Ltd) software.
The breast cancer cell proliferation inhibitory activities of the Example compounds measured by the method described above were evaluated according to the following criteria, and the results are presented in Table 15.

Cyclin K = test: Analysis of Cyclin K degradation ability in HCC70 breast cancer cells (western blot); type: cell-based; conditions: 8 hours, compared to the negative control group (DMSO), FIGs. 1 to 3
Protocol: In order to confirm the Cyclin K degradation ability of the Example compounds, HCC70 breast cancer cells and MKN45 gastric cancer cells were cultured in RPMI-1640 medium supplemented with 10 % FBS, and then the cells were collected to prepare cell suspensions. The HCC70 breast cancer cell suspension was dispensed at a cell number of 2.0 X 10^6 per 6-well and cultured in a 5 % CO2 cell incubator at 37 °C for 24 hours, and the MKN45 gastric cancer cell suspension was dispensed at a cell number of 5.0 X 10^6 per 6-well and cultured in a 5 % CO2 cell incubator at 37 °C for 24 hours. The next day, each Example compound dissolved and diluted in DMSO across 4 to 5 concentration ranges and a negative control group (DMSO-treated group) were added to the 6-wells, and the HCC70 breast cancer cells were treated for 8 hours while the MKN45 gastric cancer cells were treated with the compounds for 8 hours or 24 hours. After completion of the compound treatment, the medium was removed, each cell was washed with PBS, and then 100 µL of RIPA buffer for cell lysis was added to each 6-well to collect cell lysates. The protein concentration of the cell lysates was quantified by the […], and loading buffer was added to adjust the protein concentration to 30 µg, followed by reaction at 85 °C for 10 minutes, centrifugation, and standing at room temperature. After electrophoresis on a 4-12 % Bis-Tris gel, proteins were transferred to a nitrocellulose membrane. Primary antibodies, Cyclin K (1:1000, Bethyl Lab) and Vinculin (1:1000, Sigma), were attached to the membrane, respectively, and then labeled using a secondary antibody (1:10000, LI-COR).

HCT15 = test: Colorectal cancer cell proliferation inhibitory activity, HCT15; type: cell-based; conditions: Homo sapiens, HCT-15; 72 hours, Cell Counting Kit-8, relative IC50
Protocol: (§1) Experiments were performed using seven types of colorectal cancer cell lines to measure the cell proliferation inhibitory ability of each Example compound. DLD-1, LoVo, SW620, SW480, HCT116, HCT15, and HT29 cells were dispensed into a 96-well plate at 100 µL of cell suspension per well using RPMI1640 medium containing 10 % FBS and 1 % PS, followed by incubation in a cell incubator at 37 °C and 5 % CO2. The next day, each Example compound dissolved and diluted in DMSO across 10 concentration ranges and a DMSO control group were treated on the cells for 72 hours. After completion of the compound treatment, 10 µL of Cell Counting Kit-8 (Dojindo) reagent was added to each well of the 96-well plate, followed by incubation for 2 hours. […] were measured after inserting the 96-well plate into an Envision plate reader […]. Relative IC50 values were calculated by fitting a dose-response curve using Graphpad PRISM software.
The colorectal cancer cell proliferation inhibitory activities of the Example compounds measured by the method described above were evaluated according to the following criteria, and the results are presented in Table 19.

MKN1 = test: Gastric cancer cell proliferation inhibitory activity (Cell Counting Kit-8), MKN1; type: cell-based; conditions: Homo sapiens, MKN-1; 72 hours, Cell Counting Kit-8, relative IC50
Protocol: as §1, with “six” for “seven”, “gastric” for “colorectal”, “NCI-N87, SNU601, KATO-III, MKN1,” for “DLD-1, LoVo, SW620, SW480, HCT116, HCT15,”, “AGS” for “HT29”, “RPMI1640 medium containing 10 % FBS and 1 % PS, followed by incubation in a cell incubator at 37 °C and 5 % CO2. HS746T cells were dispensed into a 96-well plate at 100 µL of cell suspension per well using DMEM” for “RPMI1640”
The gastric cancer cell proliferation inhibitory activities of the Example compounds measured by the method described above were evaluated according to the following criteria, and the results are presented in Table 20.

| Compound | IC50 (CDK2) [nM] | CDK2/CDK12 (CDK2) | IC50 (HCC70 cells) [nM] | Cyclin K degradation ability (Cyclin K) | IC50 (HCT15) [nM] | IC50 (MKN1) [nM] |
| --- | --- | --- | --- | --- | --- | --- |
| N#CC1CN(c2cc(NCc3nc4cc(Cl)c(Cl)cc4[nH]3)c3ncc(C(F)(F)F)n3n2)C1 [Example 30, 1-(8-(((5,6-dichloro-1H-benzol[d]imidazol-2-yl)methyl)amino)-3-(trifluoromethyl)imidazo[1,2-b]pyridazin-6-yl)azetidine-3-carbonitrile] | > 1000 | C (CDK1/CDK12 or CDK2/CDK12 ≤ 100-fold) | ≤ 50 | strongly degrade Cyclin K |  |  |
| CN1CCN(c2cc(NCc3nc4ccc(F)c(F)c4[nH]3)c3ncc(C(F)(F)F)n3n2)CC1 [Example 8, N-((6,7-difluoro-1H-benzo[d]imidazol-2-yl)methyl)-6-(4-methylpiperazin-1-yl)-3-(trifluoromethyl)imidazo[1,2-b]pyridazin-8-amine] | > 1000 | B (100-fold < CDK1/CDK12 or CDK2/CDK12 ≤ 500-fold) | ≤ 50 | strongly degrade Cyclin K | ≤ 200 | ≤ 200 |
| CN1CCN(c2cc(NCc3nc4cc(Cl)c(Cl)cc4[nH]3)c3ncc(C(F)(F)F)n3n2)CC1 [Example 29, N-((5,6-dichloro-1H-benzo[d]imidazol-2-yl)methyl)-6-(4-methylpiperazin-1-yl)-3-(trifluoromethyl)imidazo[1,2-b]pyridazin-8-amine] | > 1000 |  | ≤ 50 |  |  |  |
| Nc1ncc(-c2cc(NCc3nc4cc(Cl)c(Cl)cc4[nH]3)c3ncc(C(F)(F)F)n3n2)cn1 [Example 40] | > 1000 |  |  | strongly degrade Cyclin K | ≤ 200 | ≤ 200 |
